{"source": "paper PMC9673926", "about": "“Nucleotide binding as an allosteric regulatory mechanism for Akkermansia muciniphila β-N-acetylhexosaminidase Am2136” (Gut Microbes, 2022)", "molecules": {"B1": {"name": "E649A (Akkermansia muciniphila ATCC BAA-835; E649A) (protein)", "chain": "QDAKQIADSLSIPPVKAGAKQLPMPSVSGAQIKLLGADYEQLVNSKGKIAPVISDTPVNVSFKVTKDGKEAVSKDYEIMLQAPQAAQGNPKPRIIPEILQWKGGQGEYKLGNTVTIACPDKELGKLFAADMEDVLGKKVKLVAPGAKADISLSLLKGGNLGREGYRLQIARDGVRLGAAAPTGLFWGTRTLLQMLRQTPGSVPCGTAVDFPRYQLRGFMLDVARTPYPLSYLKDVIRTMAWYKMNDLHLVINNNYIFHEHYVDNGHDPFKESYAAFRLESKMKGKDGTPLTARDLFYTKKEFADLVSYARKYGVNIVPEFDTPGHALSFTRLRPDLIYKGPMNHEKRRCEMLDAANPETIDLVSKVFDEYMLKDPKLGRPVFADCGVVHVGADEFYGDKEDYRHFANAVLTHALKRGYTPRIWGSLSAKPGKTPVVSKGVQMNLWSTGWMKAWEAVNQGYDVINTNDGALYIVPFAGYYRMDRNHKGLYNNWIPNRIGNETLPSGHPQLLGGTFAVWNDETDIMHTGYAPYDIWGIISGSMDVLSQKLWGTAKAPDTFEQHRELVSSIGNAPRTNPLHKWKDSQPLTVKPSSLPQKLDKPALGPNYRLTMELELTAAPEGKEQVLLAAPAGELLAVMKDGTVGFRRDDSLEFSFGAKLPVGKKVKVEIVGEPEKTSLLLDGEPAGTAVLKNFSDKSKDFSDKFKHRPKVHRSTFILPLKELGSSFQGKVFHMNVQPL"}, "B2": {"name": "Y327F+Y331F (Akkermansia muciniphila ATCC BAA-835; Y327F/Y331F) (protein)", "chain": "B1 chain with Y308F, Y312F, A630E"}, "B3": {"name": "R592A (Akkermansia muciniphila ATCC BAA-835; R592A) (protein)", "chain": "B1 chain with R573A, A630E"}, "B4": {"name": "R256A (Akkermansia muciniphila ATCC BAA-835; R256A) (protein)", "chain": "B1 chain with R237A, A630E"}, "B5": {"name": "P595A+H597A (Akkermansia muciniphila ATCC BAA-835; H597A/P595A) (protein)", "chain": "B1 chain with P576A, H578A, A630E"}}, "key": {"Am2136 WT": {"target": "T1, Am2136 WT (Akkermansia muciniphila, UniProt B2UPR7)", "T1 construct": "The coding region (residue Q20-L756) of Am2136 without signal peptide was based on UniProt; 6XHis (N); made in house; host or cells: E. coli BL21 (DE3)", "T1 sequence (B2UPR7 20-756)": "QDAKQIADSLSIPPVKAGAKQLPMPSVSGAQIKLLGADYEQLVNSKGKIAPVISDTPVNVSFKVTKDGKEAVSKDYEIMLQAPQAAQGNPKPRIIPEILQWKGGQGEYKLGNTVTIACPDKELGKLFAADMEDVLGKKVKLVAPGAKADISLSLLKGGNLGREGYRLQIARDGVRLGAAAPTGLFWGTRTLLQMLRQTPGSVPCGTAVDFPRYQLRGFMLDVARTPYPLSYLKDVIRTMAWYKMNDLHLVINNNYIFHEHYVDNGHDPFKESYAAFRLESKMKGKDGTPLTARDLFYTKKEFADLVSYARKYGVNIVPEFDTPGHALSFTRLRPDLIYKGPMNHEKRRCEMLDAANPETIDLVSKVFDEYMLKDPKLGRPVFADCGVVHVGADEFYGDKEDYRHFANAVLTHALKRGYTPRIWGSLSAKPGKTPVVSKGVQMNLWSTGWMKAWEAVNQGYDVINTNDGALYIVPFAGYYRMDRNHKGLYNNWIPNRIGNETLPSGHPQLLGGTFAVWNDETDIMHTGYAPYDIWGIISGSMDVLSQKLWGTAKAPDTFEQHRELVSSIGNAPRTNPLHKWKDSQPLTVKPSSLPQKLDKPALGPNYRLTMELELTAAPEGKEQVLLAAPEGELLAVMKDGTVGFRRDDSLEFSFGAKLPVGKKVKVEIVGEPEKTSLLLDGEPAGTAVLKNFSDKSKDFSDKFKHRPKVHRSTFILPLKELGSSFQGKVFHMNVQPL", "experiment": "Nucleotide binding affinity by intrinsic fluorescence", "conditions": "WT dialyzed", "method": "The nucleotide binding ability was determined on Fluorescence Spectrometer Duetta (HORIBA) by measuring the change of peak intensity. The fluorescence was excited at 286 nm and emitted at 336 nm. And the measurement was processed under 400 V voltage with 2.5 nm excitation slit and 5 nm emission slit. […] The sample was incubated at 4°C for 5 min before testing."}, "Am2136 WT dialyzed": {"target": "T2, Am2136 WT dialyzed (Akkermansia muciniphila, UniProt B2UPR7)", "T2 construct": "The coding region (residue Q20-L756) of Am2136 without signal peptide was based on UniProt; 6XHis (N); made in house; host or cells: E. coli BL21 (DE3)", "T2 sequence (B2UPR7 20-756)": "as above", "experiment": "Metal ion effect on enzyme hydrolysis activity", "type": "biochemical", "conditions": "for Vmax / kcat/Km: WT dialyzed + 2 mM metal ion, substrate pNP-β-GlcNAc; for effect of metal ion on Am2136 catalytic activity: 2 mM metal ion", "method": "The purified protein was added with the final concentration of 5 mM EDTA and incubated on ice for 20 min. Then the protein was dialyzed with the buffer solution (2 mM EDTA, 25 mM Tris, 150 mM NaCl, 5% Glycerol, pH 8.0) at 4°C for 4 h at a volume ratio of 1:350. After that, the protein was dialyzed with the EDTA-free buffer for 4 h and repeated twice.\nThe dialyzed protein was incubated with other metal ions on ice for 5 min. The 50 μL reaction mixture contains 2 μM protein, 0.125–4 mM p-nitrophenyl (pNP)-β-GlcNAc, 2 mM metal ions (MgCl2, CaCl2, CuCl2, ZnCl2, CoCl2), 25 mM Tris pH 8.0 and 150 mM NaCl."}, "Am2136": {"target": "T3, Am2136 (Akkermansia muciniphila, UniProt B2UPR7)", "T3 construct": "The coding region (residue Q20-L756) of Am2136 without signal peptide was based on UniProt; 6XHis (N); made in house; host or cells: E. coli BL21 (DE3)", "T3 sequence (B2UPR7 20-756)": "as above", "experiment": "Oligosaccharide hydrolysis, released GlcNAc by HPLC-QqQ-MS", "type": "biochemical", "conditions": "1.2 mM substrate, 4 μM Am2136, 37°C, 240 min", "method": "The 30 μL reaction mixture contains 1.2 mM oligosaccharides (Sigma), 4 μM proteins, 150 mM NH4Ac pH 8.0. The qualitative and quantitative analyses were performed by high-performance liquid chromatography-tandem triple quadrupole mass spectrometry (HPLC-QqQ-MS) (Agilent 1260 HPLC system and 6460 QqQ system, Agilent Technologies, USA). The separation was performed on a Chromplus C18 column (4.6 × 250 mm, 5 μm) at 25°C. The samples were isocratic eluted with 0.1% formic acid in water and acetonitrile (80:20, v/v) at a flow rate of 0.5 mL/min with an injection volume of 5 μL. The mass spectrometer was operated in the electron spray ionization mode with drying gas temperature of 300°C, N2 gas flow at 11 L/min, nebulizer pressure of 15 psi, and capillary voltage of 4000 V.\nQualitative analysis was carried out by MS2 full-scan mode, while quantitative analysis was performed by multiple reaction monitoring (MRM) in positive ionization mode. Amygdalin (IS) was used as internal standard, and the sample was prepared by adding 20 μL internal standard (116.96 μM) and 170 μL water to 10 μL reaction mixture. The ion transitions were chosen as m/z 222.0→203.9 for GlcNAc and m/z 458.1→296.0 for IS. The fragmentor voltage values of GlcNAc and IS were set to 70 and 130 V, respectively. The collision energies of GlcNAc and IS were set to 1 and 10 eV, respectively. The signal acquisition and peak integration were performed using the MassHunter Qualitative Analysis Software (Agilent, USA). The concentration of GlcNAc in each sample was determined by using the established calibration curve (y = 0.768x + 2.4873) made from the standard compound."}, "[1]": {"substrate": "CC(=O)N[C@H]1[C@H](Oc2ccc([N+](=O)[O-])cc2)O[C@H](CO)[C@@H](O)[C@@H]1O", "experiment": "purified protein, by the assay type", "conditions": "pH 8.0; 37.0 °C"}}, "note": "Where a chain is given by its changes, count along the chain named. Names may count otherwise.", "data": [{"molecule": "[Ca+2].[Cl-].[Cl-]", "note": "[Ca^2+, CaCl2]", "values": [{"measurement": "effect of ion on GDP binding to Am2136", "setting": "Am2136 WT", "value": "did not exhibit obvious behavioral effect on GDP binding"}, {"measurement": "Vmax", "setting": "Am2136 WT dialyzed", "value": "447 ± 14", "unit": "µmol/min"}, {"measurement": "kcat/Km", "setting": "Am2136 WT dialyzed", "value": "128000 ± 2000", "unit": "M⁻¹ s⁻¹"}]}, {"molecule": "[Cl-].[Cl-].[Co+2]", "note": "[Co^2+, CoCl2]", "values": [{"measurement": "effect of metal ion on Am2136 catalytic activity", "setting": "Am2136 WT dialyzed", "value": "significant inhibitory effects"}]}, {"molecule": "[Cl][Cu][Cl]", "note": "[Cu^2+, CuCl2]", "values": [{"measurement": "effect of metal ion on Am2136 catalytic activity", "setting": "Am2136 WT dialyzed", "value": "significant inhibitory effects"}]}, {"molecule": "CC(=O)N[C@H]1[C@H](O[C@@H]2C(O)O[C@H](CO)[C@@H](O)[C@@H]2O)O[C@H](CO)[C@@H](O)[C@@H]1O", "note": "(stereo partly drawn) [GlcNAc-(β1,2)Man]", "values": [{"measurement": "GlcNAc released", "setting": "Am2136; with 1 mM GDP", "value": 851.33, "unit": "µM"}, {"measurement": "GlcNAc released", "setting": "Am2136; without GDP", "value": 671, "unit": "µM"}]}, {"molecule": "CC(=O)N[C@H]1[C@H](OC[C@H]2O[C@@H](O[C@H]3[C@H](O)[C@@H](O)C(O)O[C@@H]3CO)[C@H](O)[C@@H](O)[C@H]2O)O[C@H](CO)[C@@H](O)[C@@H]1O", "note": "(stereo partly drawn) [GlcNAc-(β1,6)Gal-(β1,4)Glc]", "values": [{"measurement": "GlcNAc released", "setting": "Am2136; with 1 mM GDP", "value": 712.55, "unit": "µM"}, {"measurement": "GlcNAc released", "setting": "Am2136; without GDP", "value": 549, "unit": "µM"}]}, {"molecule": "CC(=O)N[C@H]1[C@@H](Oc2ccc([N+](=O)[O-])cc2)O[C@H](CO[C@@H]2O[C@H](CO)[C@@H](O)[C@H](O)[C@H]2NC(C)=O)[C@H](O)[C@@H]1O", "note": "[GlcNAc-(β1,6)GalNAc-α-pNP]", "values": [{"measurement": "GlcNAc released", "setting": "Am2136; with 1 mM GDP", "value": 451.25, "unit": "µM"}, {"measurement": "GlcNAc released", "setting": "Am2136; without GDP", "value": 308, "unit": "µM"}]}, {"molecule": "COC1O[C@H](CO)[C@H](O)[C@H](O[C@@H]2O[C@H](CO)[C@@H](O)[C@H](O)[C@H]2NC(C)=O)[C@H]1O", "note": "(stereo partly drawn) [Methyl GlcNAc-(β1,3)Gal]", "values": [{"measurement": "GlcNAc released", "setting": "Am2136; with 1 mM GDP", "value": 610.53, "unit": "µM"}, {"measurement": "GlcNAc released", "setting": "Am2136; without GDP", "value": 448, "unit": "µM"}]}, {"molecule": "[Cl-].[Cl-].[Mg+2]", "note": "[Mg^2+, MgCl2]", "values": [{"measurement": "effect of ion on GDP binding to Am2136", "setting": "Am2136 WT", "value": "did not exhibit obvious behavioral effect on GDP binding"}, {"measurement": "Vmax", "setting": "Am2136 WT dialyzed", "value": "435 ± 9", "unit": "µmol/min"}, {"measurement": "kcat/Km", "setting": "Am2136 WT dialyzed", "value": "151000 ± 3000", "unit": "M⁻¹ s⁻¹"}]}, {"molecule": "[Cl-].[Cl-].[Zn+2]", "note": "[Zn^2+, ZnCl2]", "values": [{"measurement": "effect of metal ion on Am2136 catalytic activity", "setting": "Am2136 WT dialyzed", "value": "significant inhibitory effects"}]}, {"molecule": "B1", "values": [{"measurement": "Km", "setting": "[1]", "value": "1450 ± 90", "unit": "µM"}]}, {"molecule": "B2", "values": [{"measurement": "Km", "setting": "[1]", "value": "1420 ± 60", "unit": "µM"}]}, {"molecule": "B3", "values": [{"measurement": "Km", "setting": "[1]", "value": "1480 ± 60", "unit": "µM"}]}, {"molecule": "B4", "values": [{"measurement": "Km", "setting": "[1]", "value": "1490 ± 60", "unit": "µM"}]}, {"molecule": "B5", "values": [{"measurement": "Km", "setting": "[1]", "value": "1580 ± 70", "unit": "µM"}]}]}
